From patent US9476099B2 (TRUSTEES OF DARTMOUTH COLLEGE, priority 2012, dated 2016)

System: NT2/D1-R1 control and DNMT3B knockdown cells
Test: Genome-wide expression analysis with PAM clusters, control and DNMT3B knockdown cells (Tables 8-14)
Conditions: sh-Ctrl + aza, NT2/D1-R1, decitabine 10 nM 3 days

Structure (SMILES): Nc1ncn([C@H]2C[C@H](O)[C@@H](CO)O2)c(=O)n1 [aza]
- ACSS2 (NM_0010765) gene expression, Mean: 354.703
- ADCK1 (NM_020421) gene expression, Mean: 203.584
- ADCY1 (NM_021116) gene expression, Mean: 106.028
- AGAP1 (NM_014914) gene expression, Mean: 188.156
- AK056312 gene expression, Mean: 293.846
- ANKRD9 (NM_152326) gene expression, Mean: 614.423
- APEH (NM_001640) gene expression, Mean: 720.135
- APP (NM_201414) gene expression, Mean: 326.901
- C1orf115 (NM_024709) gene expression, Mean: 213.203
- C2orf34 (NM_024766) gene expression, Mean: 205.5
- C7orf47 (NM_145030) gene expression, Mean: 466.635
- C16orf35 (NM_0010394) gene expression, Mean: 630.186
- CA4 (NM_000717) gene expression, Mean: 1449.98
- CACNA2D2 (NM_006030) gene expression, Mean: 304.761
- CD24 (NM_013230) gene expression, Mean: 1797.88
- CD248 (NM_020404) gene expression, Mean: 178.853
- CDC42EP5 (NM_145057) gene expression, Mean: 219.473
- CDH3 (NM_001793) gene expression, Mean: 651.295
- CEBPB (NM_005194) gene expression, Mean: 1388.19
- CHST13 (NM_152889) gene expression, Mean: 151.937
- CLASP1 (NM_015282) gene expression, Mean: 301.334
- CLIP2 (NM_032421) gene expression, Mean: 175.136
- COMMD1 (NM_152516) gene expression, Mean: 235.362
- COMMD7 (NM_0010993) gene expression, Mean: 915.427
- CRMP1 (NM_0010148) gene expression, Mean: 328.665
- CTNNBIP1 (NM_020248) gene expression, Mean: 144.946
- CXCL16 (NM_022059) gene expression, Mean: 279.669
- CYP2F1 (NM_000774) gene expression, Mean: 126.222
- CYP2S1 (NM_030622) gene expression, Mean: 604.679
- DBC1 (NM_014618) gene expression, Mean: 197.271
- DDIT4 (NM_019058) gene expression, Mean: 522.11
- DGKQ (NM_001347) gene expression, Mean: 247.199
- DLL3 (NM_016941) gene expression, Mean: 120.925
- DPYSL3 (NM_001387) gene expression, Mean: 602.964
- DYM (NM_017653) gene expression, Mean: 217.362
- DYSF (NM_003494) gene expression, Mean: 188.291
- EEF2K (NM_013302) gene expression, Mean: 243.652
- EPHA1 (NM_005232) gene expression, Mean: 497.427
- EVI5L (NM_145245) gene expression, Mean: 247.813
- EVL (NM_016337) gene expression, Mean: 537.424
- EXTL3 (NM_001440) gene expression, Mean: 695.163
- F11R (NM_016946) gene expression, Mean: 182.523
- FAF1 (NM_007051) gene expression, Mean: 209.978
- FAM125A (NM_138401) gene expression, Mean: 564.523
- FAM127A (NM_0010781) gene expression, Mean: 867.222
- FCGBP (NM_003890) gene expression, Mean: 247.577
- FDFT1 (NM_004462) gene expression, Mean: 417.59
- FIGNL2 (NM_0010136) gene expression, Mean: 231.29
- FLNB (NM_001457) gene expression, Mean: 679.266
- FOXN3 (NM_005197) gene expression, Mean: 274.017
- GAL (NM_015973) gene expression, Mean: 1375.17
- GAS7 (NM_201433) gene expression, Mean: 225.598
- GLG1 (NM_012201) gene expression, Mean: 958.607
- GRAMD1A (NM_020895) gene expression, Mean: 767.701
- GTF3C1 (NM_001520) gene expression, Mean: 387.976
- HCFC1R1 (NM_0010020) gene expression, Mean: 427.673
- HESX1 (NM_003865) gene expression, Mean: 204.885
- HINT2 (NM_032593) gene expression, Mean: 537.794
- HIST3H2A (NM_033445) gene expression, Mean: 314.077
- HIST4H4 (NM_003541) gene expression, Mean: 218.72
- HK1 (NM_033500) gene expression, Mean: 3617.1
- IDH1 (NM_005896) gene expression, Mean: 668.525
- IL21R (NM_181078) gene expression, Mean: 154.278
- JPH3 (NM_020655) gene expression, Mean: 167.797
- KIF1A (NM_004321) gene expression, Mean: 160.071
- KIF1B (NM_015074) gene expression, Mean: 252.94
- LDB2 (NM_001290) gene expression, Mean: 202.228
- LDOC1 (NM_012317) gene expression, Mean: 502.418
- LHFPL4 (NM_198560) gene expression, Mean: 215.926
- LONP1 (NM_004793) gene expression, Mean: 779.763
- LPCAT3 (NM_005768) gene expression, Mean: 477.318
- LRBA (NM_006726) gene expression, Mean: 170.16
- LRRC33 (NM_198565) gene expression, Mean: 145.858
- MAPK3 (NM_0010400) gene expression, Mean: 277.581
- MAPKAP1 (NM_0010066) gene expression, Mean: 182.648
- MED30 (NM_080651) gene expression, Mean: 647.26
- MID1IP1 (NM_021242) gene expression, Mean: 649.056
- MKRN1 (NM_013446) gene expression, Mean: 2856.3
- MSRB2 (NM_012228) gene expression, Mean: 934.409
- MYO5C (NM_018728) gene expression, Mean: 151.991
- NANOG (NM_024865) gene expression, Mean: 706.99
- NCOR2 (NM_006312) gene expression, Mean: 493.089
- NDUFS4 (NM_002495) gene expression, Mean: 337.053
- NFE2L3 (NM_004289) gene expression, Mean: 222.942
- NGFRAP1 (NM_206917) gene expression, Mean: 1121.05
- NKX3-2 (NM_001189) gene expression, Mean: 409.938
- NM_014745 gene expression, Mean: 379.916
- NPAS1 (NM_002517) gene expression, Mean: 201.893
- NPTX2 (NM_002523) gene expression, Mean: 367.499
- ODZ3 (NM_0010804) gene expression, Mean: 189.247
- P4HB (NM_000918) gene expression, Mean: 1383.99
- PACSIN1 (NM_020804) gene expression, Mean: 216.839
- PCDH19 (NM_020766) gene expression, Mean: 151.727
- PCK2 (NM_0010180) gene expression, Mean: 116.02
- PDZD4 (NM_032512) gene expression, Mean: 182.348
- PEMT (NM_148172) gene expression, Mean: 595.006
- PEX14 (NM_004565) gene expression, Mean: 250.351
- PGM1 (NM_002633) gene expression, Mean: 1814.18
- PHC1 (NM_004426) gene expression, Mean: 951.052
- PIM2 (NM_006875) gene expression, Mean: 985.879
- PITPNC1 (NM_181671) gene expression, Mean: 180.093
- PNKP (NM_007254) gene expression, Mean: 424.886
- PPAP2A (NM_176895) gene expression, Mean: 348.062
- PPP1R1B (NM_181505) gene expression, Mean: 238.675
- PQLC3 (NM_152391) gene expression, Mean: 198.571
- PRSS8 (NM_002773) gene expression, Mean: 991.013
- PSAT1 (NM_021154) gene expression, Mean: 1824.54
- PTOV1 (NM_017432) gene expression, Mean: 720.62
- PTPLA (NM_014241) gene expression, Mean: 227.16
- RAB3IP (NM_175624) gene expression, Mean: 601.056
- RALY (NM_007367) gene expression, Mean: 833.663
- RASIP1 (NM_017805) gene expression, Mean: 185.874
- RASL11B (NM_023940) gene expression, Mean: 432.564
- RCN2 (NM_002902) gene expression, Mean: 501.026
- REEP6 (NM_138393) gene expression, Mean: 405.813
- RNF130 (NM_018434) gene expression, Mean: 174.702
- ROD1 (NM_005156) gene expression, Mean: 637.491
- RPS6KA2 (NM_0010069) gene expression, Mean: 141.693
- SAT1 (NM_002970) gene expression, Mean: 1895.82
- SCARB1 (NM_005505) gene expression, Mean: 433.694
- SEMA4B (NM_198925) gene expression, Mean: 288.428
- SEMA4D (NM_006378) gene expression, Mean: 315.221
- SEMA6B (NM_032108) gene expression, Mean: 218.592
- SH2B3 (NM_005475) gene expression, Mean: 424.579
- SLC3A2 (NM_0010132) gene expression, Mean: 898.448
- SLC8A2 (NM_015063) gene expression, Mean: 166.295
- SLC16A10 (NM_018593) gene expression, Mean: 159.709
- SLC22A23 (NM_021945) gene expression, Mean: 233.534
- SND1 (NM_014390) gene expression, Mean: 423.122
- SOX2 (NM_003106) gene expression, Mean: 271.23
- SPRY1 (NM_005841) gene expression, Mean: 248.973
- SPSB2 (NM_032641) gene expression, Mean: 474.363
- SRPX (NM_006307) gene expression, Mean: 222.901
- SURF6 (NM_006753) gene expression, Mean: 1293.98
- TBCD (NM_005993) gene expression, Mean: 256.961
- TCEA2 (NM_198723) gene expression, Mean: 483.559
- TCF7L1 (NM_031283) gene expression, Mean: 144.548
- TIMP4 (NM_003256) gene expression, Mean: 389.521
- TMC6 (NM_007267) gene expression, Mean: 346.392
- TMEM145 (NM_173633) gene expression, Mean: 166.627
- TPST2 (NM_0010085) gene expression, Mean: 370.953
- TRAPPC9 (NM_031466) gene expression, Mean: 104.733
- TSPAN9 (NM_006675) gene expression, Mean: 1313.95
- TUBB4 (NM_006087) gene expression, Mean: 253.587
- UBE2E2 (NM_152653) gene expression, Mean: 347.293
- UNC84B (NM_015374) gene expression, Mean: 465.92
- VCX2 (NM_016378) gene expression, Mean: 415.874
- VCX3A (NM_016379) gene expression, Mean: 1237.23
- VCX3B (NM_0010018) gene expression, Mean: 1368.4
- VSNL1 (NM_003385) gene expression, Mean: 249.848
- WDR8 (NM_017818) gene expression, Mean: 619.054
- XBP1 (NM_0010795) gene expression, Mean: 505.041
- XM_373896 gene expression, Mean: 276.846
- XM_926633 gene expression, Mean: 1782.67
- XM_932919 gene expression, Mean: 283.159
- XM_933796 gene expression, Mean: 270.602
- XM_943677 gene expression, Mean: 245.788
- ZBTB46 (NM_025224) gene expression, Mean: 207.588
- ZSWIM4 (NM_023072) gene expression, Mean: 393.591
- HIST1H2BK (NM_080593) gene expression, Mean (first HIST1H2BK entry (r906)): 1316.1
- TRPC4AP (NM_015638) gene expression, Mean (first TRPC4AP entry (r880)): 633.52
- HIST1H2BK (NM_080593) gene expression, Mean (second HIST1H2BK entry (r952)): 332.966
- TRPC4AP (NM_015638) gene expression, Mean (second TRPC4AP entry (r892)): 1094.19
